Several values for one entry are separate records, joined by “and”; a condition that tells them apart may be missing. Identical values can stand only once. Like-named read-outs stand apart in the source and are kept apart here.
Target: T1, HIV-1 protease (Human immunodeficiency virus type 1 group M subtype B, UniProt P04585)
T1 construct: purified HIV-1 protease
Assay: biochemical
Assay type: biochemical
Experimental: 1. Proteolytic activity of purified HIV-1 protease was routinely measured using the chromogenic assay developed by Richards et al. (J. Biol. Chem. 265: 7733 (1990)). Synthetic peptide His-Lys-Ala-Arg-Val-Leu-Phe (pNO2)-Glu-Ala-Nle-Ser-NH2 (American Peptide Company) was used as the substrate.
2. The assay was carried out in 0.5M NaCl, 50 mM MES pH 5.6, 2% DMSO (dimethylsulfoxide) at 37° C. Cleavage of the scissile bond between leucine and paranitro-phenylalanine (Phe(pNO2)) was assayed by spectrophotometric monitoring of the decrease in absorbance at 305 nm. Initial velocity was determined as the rate of decline of absorbance during the first 100 seconds of reaction.
3. […] Between 15-25 concentrations of inhibitor were added and velocity of reaction was measured at each of the concentrations, as described above.
4. Inhibition constants were calculated using the method of Jackson et al. (Adv. in Enzyme Regulation 22: 187 (1984)).

[1] = 0.5M NaCl, 50 mM MES pH 5.6, 2% DMSO, 37° C., 200 μM substrate

Row | IC50 [1] | SMILES | also measured
1 | 55 µM | CC(C)(C)NC(=O)[C@@H]1C[C@@H]2CCCC[C@@H]2CN1CC(O)CCc1ccccc1C(=O)N(CCO)C(C)(C)C (single isomer, unassigned) [Example 29] | –
2 | 38 µM | CC(C)(C)NC(=O)[C@@H]1C[C@@H]2CCCC[C@@H]2CN1CC(O)CCc1ccccc1C(=O)N(CCO)C(C)(C)C (single isomer, unassigned) [Example 30] | –
3 | – | CC(C)(C)NC(=O)c1c(CCC(O)Cc2ccc3ccccc3c2C(=O)NC(C)(C)C)ccc2ccccc12 (single isomer, unassigned) [Example 49] | IC50: 0.88 µM; Ki: 0.48 µM
4 | 2.38 µM | CC(C)(C)NC(=O)c1c(CC(O)CCc2ccccc2C(=O)N(CCO)C(C)(C)C)ccc2ccccc12 (stereo not drawn) [Example 3] | Ki [1]: 1.31 µM
5 | 0.72 µM | Cc1ccc(CCC(O)Cc2ccccc2C(=O)N(CCO)C2(C)CCCC2)c(C(=O)N(CCO)C(C)(C)C)c1 (stereo not drawn) [Example 4] | Ki [1]: 0.42 µM
6 | 30 µM | CC(C)(C)N(CCO)C(=O)c1c(CCC(O)Cc2ccc3ccccc3c2C(=O)N(CCO)C(C)(C)C)ccc2ccccc12 (stereo not drawn) [Example 6] | –
7 | 1.02 µM | CC(C)(C)NC(=O)c1cc(C(C)(C)C)ccc1CCC(O)Cc1ccc2ccccc2c1C(=O)NC(C)(C)C (stereo not drawn) [Example 7] | Ki [1]: 1.01 µM
8 | ~20 µM | CC(C)(C)NC(=O)c1cc(C(C)(C)C)ccc1CC[C@@H](O)Cc1ccc2ccccc2c1C(=O)NC(C)(C)C [Example 8] | –
9 | – | CC(C)(C)NC(=O)c1cc2ccccc2cc1CCC(O)Cc1ccc2ccccc2c1C(=O)NC(C)(C)C (stereo not drawn) [Example 9] | percent (inhibition) (at 20 (μM)): 40%
10 | 15 µM | CC(C)(C)NC(=O)c1cc(C(C)(C)C)ccc1CCC(O)Cc1ccc(C(C)(C)C)cc1C(=O)NC(C)(C)C (stereo not drawn) [Example 10] | –
11 | 18 µM | CC(C)(C)NC(=O)c1cnccc1CC(O)CCc1ccc2ccccc2c1C(=O)NC(C)(C)C (stereo not drawn) [Example 11] | –
12 | – | CC(C)(C)NC(=O)c1ccccc1CCC(O)Cc1ccccc1C(=O)N(Cc1ccccc1)C(C)(C)C (stereo not drawn) [Example 13] | percent (inhibition) (at 10 (μM)): 40%
13 | 5.6 µM | CC(C)(C)NC(=O)c1c(CCC(O)Cc2ccc3ccccc3c2C(=O)N(CCO)C(C)(C)C)ccc2ccccc12 (stereo not drawn) [Example 14] | Ki [1]: 5.4 µM
14 | – | CC(C)(C)NC(=O)c1c(CCC(O)Cc2ccccc2-c2nccc3ccccc23)ccc2ccccc12 (stereo not drawn) [Example 16] | percent (inhibition) (at 50 (μM)): 20%
15 | > 200 µM | CC(C)(C)NC(=O)c1ccccc1SCC(O)c1ccccc1C(=O)NC(C)(C)C (stereo not drawn) [Example 17] | –
16 | – | CC(C)(C)NC(=O)c1ccccc1C(O)CSc1ccccc1NC(=O)C(C)(C)C (stereo not drawn) [Example 21] | percent (inhibition) (at 200 (μM)): 10%
17 | 60 µM | CC(C)(C)NC(=O)c1ccccc1SCC(O)CN1CCCCC1C(=O)NC(C)(C)C (stereo not drawn) [Example 22] | –
18 | 75 to 100 µM | CC(C)(C)NC(=O)c1ccccc1CC(O)CSc1ccccc1C(=O)NC(C)(C)C (stereo not drawn) [Example 23] | –
19 | 18 µM | CC(C)(C)NC(=O)c1ccccc1CCC(O)Cc1ccccc1C(=O)NC(C)(C)C (stereo not drawn) [Example 25] | –
20 | > 200 µM | CC(C)(C)NC(=O)c1ccccc1C#CC(O)Cc1ccccc1C(=O)NC(C)(C)C (stereo not drawn) [Example 26] | –
21 | – | CC(C)(C)NC(=O)c1ccccc1/C=C\C(O)Cc1ccccc1C(=O)NC(C)(C)C (stereo not drawn) [Example 27] | percent (inhibition) (at 200 (μM)): 40%

Row | IC50 [1] | SMILES | also measured
22 | – | CC(C)(C)NC(=O)c1ccccc1/C=C/C(O)Cc1ccccc1C(=O)NC(C)(C)C (stereo not drawn) [Example 28] | percent (inhibition) (at 200 (μM)): 40%
23 | – | CC(C)(C)NC(=O)c1ccccc1CCC(O)CN1CCCCC1C(=O)NC(C)(C)C (stereo not drawn) [Example 31] | percent (inhibition) (at 100 (μM)): 20% and 35%
24 | 7 µM | CC(C)(C)NC(=O)c1c(CCC(O)CCc2ccc3ccccc3c2C(=O)NC(C)(C)C)ccc2ccccc12 [Example 32] | –
25 | 6 µM | CC(C)(C)N(CCO)C(=O)c1ccccc1CCC(O)CCc1ccccc1C(=O)N(CCO)C(C)(C)C [Example 33] | –
26 | – | CC(O)(CCc1ccccc1C(=O)NC(C)(C)C)Cc1ccccc1C(=O)NC(C)(C)C (stereo not drawn) [Example 34] | percent (inhibition) (at 100 (μM)): 40%
27 | 1.19 µM | CC(C)(C)NC(=O)c1cc(C(C)(C)C)ccc1CCC(O)Cc1ccccc1C(=O)N(CCO)C(C)(C)C (stereo not drawn) [Example 35] | Ki [1]: 0.84 µM
28 | 25 µM | CC(C)(C)NC(=O)c1ccccc1SCC(O)Cc1ccccc1C(=O)N(CCO)C(C)(C)C (stereo not drawn) [Example 36] | –
29 | > 500 µM | CN(C)CCNC(=O)c1ccccc1CC(O)CSc1ccccc1C(=O)NCCN(C)C (stereo not drawn) [Example 37] | –
30 | > 500 µM | CCNC(=O)c1ccccc1CC(O)CSc1ccccc1C(=O)NCCN(C)C (stereo not drawn) [Example 38] | –
31 | > 500 µM | CN(C)CCNC(=O)c1ccccc1SCC(O)Cc1ccccc1C(=O)NC(C)(C)C (stereo not drawn) [Example 39] | –
32 | > 500 µM | CN(C)CC(C)(C)CNC(=O)c1ccccc1SCC(O)Cc1ccccc1C(=O)NC(C)(C)C (stereo not drawn) [Example 40] | –
33 | > 500 µM | COC(CSc1ccccc1C(=O)NC(C)(C)C)Cc1ccccc1C(=O)NC(C)(C)C (stereo not drawn) [Example 41] | –
34 | 150 to 200 µM | CC(C)(C)NC(=O)c1ccccc1CC(O)CSc1ccccc1C(=O)N1CCOCC1 (stereo not drawn) [Example 42] | –
35 | – | CC(C)(C)NC(=O)c1ccccc1CC(O)CSc1ccc([N+](=O)[O-])cc1C(=O)NC(C)(C)C (stereo not drawn) [Example 43] | percent (inhibition) (at 200 (μM)): 20%
36 | – | CC(C)(C)NC(=O)c1ccccc1CC(O)CSc1ccc(N)cc1C(=O)NC(C)(C)C (stereo not drawn) [Example 44] | percent (inhibition) (at 200 (μM)): 20%
37 | 60 µM | CC(C)(C)NC(=O)c1ccccc1CC(O)CSc1ccc(NC(=O)c2ccncc2)cc1C(=O)NC(C)(C)C (stereo not drawn) [Example 45] | –
38 | 200 µM | CC(C)(C)NC(=O)c1ccccc1CC(O)CSc1ccc(NCc2ccncc2)cc1C(=O)NC(C)(C)C (stereo not drawn) [Example 46] | –
39 | 50 µM | CC(C)(C)NC(=O)c1ccccc1CC(O)CSc1ccc2ccccc2c1C(=O)NC(C)(C)C (stereo not drawn) [Example 47] | –
40 | 70 µM | CC(C)N1CCC(CC(O)CCc2ccc3ccccc3c2C(=O)NC(C)(C)C)=C(C(=O)NC(C)(C)C)C1 (stereo not drawn) [Example 48] | –
41 | 120 µM | CC(C)(C)NC(=O)c1ccccc1NCC(O)Cc1ccc2ccccc2c1C(=O)NC(C)(C)C (stereo not drawn) [Example 50] | –
42 | 120 µM | CC(C)(C)NC(=O)c1ccccc1NCC(O)Cc1ccc2ccccc2c1C(=O)NC(C)(C)C (stereo not drawn) [Example 51] | –

Row | IC50 [1] | SMILES | also measured
43 | 25 µM | CC(C)(C)NC(=O)c1ccccc1SCC(O)Cc1ccc2ccccc2c1C(=O)NC(C)(C)C (stereo not drawn) [Example 52] | –
44 | 6.3 µM | CN(C(=O)c1ccccc1CCC(O)Cc1ccccc1C(=O)N(C)C(C)(C)C)C(C)(C)C (stereo not drawn) [Example 55] | –
45 | 64 µM | CC(C)(C)NC(=O)c1ccccc1CC(O)C(O)Cc1ccccc1C(=O)NC(C)(C)C (stereo not drawn) [Example 56] | Ki [1]: 56 µM
46 | – | CC(C)(C)NC(=O)c1ccccc1CCC(O)C(O)CCc1ccccc1C(=O)NC(C)(C)C (stereo not drawn) [Example 57] | percent (inhibition) (at 200 (μM)): 93%
47 | 9.6 µM | CC(C)(C)N(CCO)C(=O)c1ccccc1CC(O)C(O)Cc1ccccc1C(=O)N(CCO)C(C)(C)C (stereo not drawn) [Example 58] | Ki [1]: 7.7 µM
48 | – | CN(C(=O)c1c(CC(O)CCc2ccc3ccccc3c2C(=O)NC(C)(C)C)ccc2c1CNCC2)C(C)(C)C (stereo not drawn) [Example 59] | percent (inhibition) (at 100 (μM)): 20%
49 | 4.1 µM | CC(C)(C)NC(=O)c1cc2ccccc2cc1CCC(O)Cc1ccccc1C(=O)N(CCO)C(C)(C)C (stereo not drawn) [Example 60] | Ki [1]: 2.7 µM
50 | 1.33 µM | CC(C)(C)N(CCO)C(=O)c1ccccc1CCC(O)Cc1ccccc1C(=O)N(CCO)C(C)(C)Cc1ccccc1 (stereo not drawn) [Example 61] | Ki [1]: 1.27 µM
51 | – | CC(=O)N1CCc2ccc(CC(O)CCc3ccc4ccccc4c3C(=O)NC(C)(C)C)c(C(=O)N(C)C(C)(C)C)c2C1 (stereo not drawn) [Example 63] | percent (inhibition) (at 200 (μM)): 40%
52 | 8.3 µM | CC(C)(C)N(CCO)C(=O)c1ccccc1CCC(O)Cc1ccccc1C(=O)N(Cc1ccccc1)C(C)(C)C (stereo not drawn) [Example 64] | Ki [1]: 7.9 µM
53 | – | CC(C)(C)NC(=O)c1c(CCC(O)Cc2ccccc2C(=O)N(Cc2nc3ccccc3[nH]2)C(C)(C)C)ccc2ccccc12 (stereo not drawn) [Example 67] | percent (inhibition) (at 10 (μM)): 40%
54 | 11.9 µM | CC(C)(C)N(CCO)C(=O)c1ccccc1CCC(O)Cc1ccccc1C(=O)N(c1ccccc1)C(C)(C)C (stereo not drawn) [Example 68] | Ki [1]: 5.8 µM
55 | – | CC(C)(C)NC(=O)c1c(CCC(O)Cc2ccccc2C(=O)N(c2ccccc2)C(C)(C)C)ccc2ccccc12 (stereo not drawn) [Example 69] | percent (inhibition) (at 10 (μM)): 40%
56 | 9 µM | CC(C)(C)N(CCO)C(=O)c1ccccc1CCC(=O)C(F)c1ccccc1C(=O)N(CCO)C(C)(C)c1ccccc1 (stereo not drawn) [Example 70] | –
57 | 1.3 µM | CC(C)(C)N(CCO)C(=O)c1ccccc1CCC(O)C(F)c1ccccc1C(=O)N(CCO)C(C)(C)c1ccccc1 (stereo not drawn) [Example 71] | Ki [1]: 0.879 µM
58 | 8 µM | CC(C)(C)N(CCCO)C(=O)c1ccccc1CCC(O)Cc1ccccc1C(=O)N(CCOCCN1CCOCC1)C(C)(C)c1ccccc1 (stereo not drawn) [Example 75] | –
59 | 1.74 µM | CC(C)(C)N(CCO)C(=O)c1ccccc1CCC(O)Cc1ccccc1C(=O)N(CCOCc1ccccc1)C(C)(C)c1ccncc1 (stereo not drawn) [Example 76] | Ki [1]: 0.92 µM
60 | 3.5 µM | CC(C)(C)N(CCO)C(=O)c1ccccc1CCC(O)C(F)(F)c1ccccc1C(=O)N(CCO)C(C)(C)c1ccccc1 (stereo not drawn) [Example 79] | Ki [1]: 3.2 µM
61 | 36 µM | CC(C)(C)N(CCO)C(=O)c1ccccc1CC(O)CSc1ccccc1C(=O)N(CCO)C(C)(C)C (stereo not drawn) [Example 85] | Ki [1]: 18.4 µM
62 | 0.448 µM | Cc1ccc(CC(O)CCc2ccccc2C(=O)N(Cc2ccccc2)C(C)C)c(C(=O)N(CCO)C(C)(C)c2ccccc2)c1 (stereo not drawn) [Example 86] | Ki [1]: 0.379 µM
63 | 0.23 µM | CCc1ccc(CC(O)CCc2ccccc2C(=O)N(CCOCc2ccccc2)C(C)(C)c2ccccc2)c(C(=O)N(CCO)C(C)(C)c2ccccc2)c1 (stereo not drawn) [Example 88] | Ki [1]: 0.075 µM

Source: patent publication US5863950A, “HIV protease inhibitors” (Agouron Pharmaceuticals, Inc., priority 1994, dated 1999)
